Test results as given in article PMC6508961, “A high-throughput screen of pharmacologically active compounds for inhibitors of UHRF1 reveals epigenetic activity of anthracycline derivative chemotherapeutic drugs” (Oncotarget, 2019).
Read-outs that look alike come from different tables or passages of the source.

How the values were obtained:
[1] = target: T1, UHRF1_SRA binding to hemimethylated DNA (Homo sapiens, UniProt Q96T88); test: LOPAC primary screen with the TR-FRET assay; conditions: 20 μM; hit = Z-score < −4.08, Bonferroni adjusted p-value < 0.05
T1 construct: made in house; host or cells: E. coli BL-21 Gold
T1 sequence (Q96T88 419-582 limits assumed): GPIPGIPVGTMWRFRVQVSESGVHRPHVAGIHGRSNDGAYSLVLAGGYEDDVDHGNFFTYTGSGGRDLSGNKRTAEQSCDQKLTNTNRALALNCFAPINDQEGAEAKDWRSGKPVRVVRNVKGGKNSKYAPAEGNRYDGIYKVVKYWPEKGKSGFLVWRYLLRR
Description: The above TR-FRET assay was employed to screen the Library of Pharmacologically Active Compounds (LOPAC) (Sigma-Aldrich) using optimized conditions. 200 uM stock solutions of compounds dissolved in dimethyl sulfoxide (DMSO) were added to a final concentration of 20 μM across four 384-well plates containing 20 μL of TR-FRET buffer with 125 nM UHRF1_SRA protein, 100 nM double stranded FAM-labeled hemimethylated oligos, and 5 nM terbium labeled anti-HIS antibody. Controls on each plate include: 1) a DMSO-only vehicle control, 2) 5μM of unlabeled, methylated oligonucleotide as a positive inhibition control, 3) unmethylated, FAM-labeled oligonucleotide as a negative control, and 4) no UHRF1_SRA protein negative control. Each plate was incubated at 4° C for one hour and read using a Safire^2 (Tecan Group, Männedorf, Switzerland) with excitation at 332 nm and emissions read at 485 nm and 515 nm. A Z score of the TR-FRET signal (ratio of 515 nm signal to the 485 nm signal) was calculated for each compound using the following formula: […]
where x is the TR-FRET signal for each compound, x¯ is the median TR-FRET signal of all compounds on the plate, and σ is the standard deviation of all compound TR-FRET signals across the plate. Hits were defined as those compounds with Z-score < −4.08 corresponding to a Bonferroni adjusted p-value of less than 0.05.

[2] = target: T1, UHRF1_SRA binding to hemimethylated DNA; test: TR-FRET assay, dose-response inhibition of UHRF1_SRA binding to FAM-labeled hemimethylated DNA; conditions: for Dose-response validation of screen hits (result in words): dilution series 50 μM to 0.64 nM, quadruplicate
Description: TR-FRET assays were performed in an optimized TR-FRET buffer (4% glycerol, 1 mM MgCl2, 0.5 mM EDTA, 0.5 mM DTT, 125 mM NaCl, 10 mM Tris HCl, and 0.2% Tween-20) in non-binding, flat-bottom 384-well plates (Corning). UHRF1_SRA protein was added to a final concentration of 125 nM and terbium-labeled antibody was added at 5 nM (Life Technologies) in a final reaction volume of 20 μL. For initial binding experiments examining the affinity of UHRF1_SRA to DNA, FAM-labeled hemimethylated or unmethylated double stranded oligonucleotides were added in a dilution series, and the reaction mixture was incubated at 4°C with shaking for 1 hour. TR-FRET measurements were made on a SpectraMax M5 (Molecular Devices, Sunnyvale, CA, USA), using an excitation wavelength of 332 nm and emissions read at 485 nm and 515 nm with a 50 μsec delay and 400 μsec integration. The ratio of the 515 nm emission (arising from FRET) to the 485 nm emission provides a normalized TR-FRET signal that represents the extent of binding. For inhibitor curves, FAM-labeled hemimethylated oligonucleotide was added to a final concentration of 100 nM, and unlabeled oligonucleotide was added in a dilution series. A Z’ factor was calculated for 32 replicates of UHRF1_SRA protein binding FAM-labeled hemimethylated DNA with or without the addition of an excess (5 μM) of unlabeled hemimethylated inhibitor (“cold” perfect competitive inhibitor positive control for inhibition):
Each hit compound was tested using the TR-FRET assay above in quadruplicate in a dilution series (50 μM to 0.64 nM). Curve fitting was performed using the open source software R version 2.15.2 with the ggplot2 package.

DU-145 cells [3] = test: Clonogenic survival assay; conditions: 10 days; for Clonogenic survival, drug alone: decitabine 50 nM, mitoxantrone 2.5 nM, doxorubicin 5 nM; for Clonogenic survival, in combination with decitabine: mitoxantrone 2.5 nM or doxorubicin 5 nM with 50 nM decitabine
DU-145 cells [4] = test: Growth curve assay (IncuCyte); format: cell-based; conditions: mitoxantrone 1.25 nM or doxorubicin 5 nM or 10 nM with 50 nM decitabine
Description: The next day, cells were treated with a single dose of DMSO (vehicle control), decitabine alone (50 nM), mitoxantrone alone (1.25 nM), doxorubicin alone (5 nM or 10 nM), or decitabine in combination with mitoxantrone (1.25 nM) or doxorubicin (5 nM or 10 nM). Cell growth was measured using IncuCyte™ technology (Essen Bioscience, Ann Arbor, MI, USA) by imaging 16 fields per well at 6 hour intervals. The cell surface area and percent confluence were calculated using IncuCyte software, and growth curves were constructed in R using the ggplot2 package.

[5] = test system: LNCaP prostate cancer cell line; test: Cellular growth/proliferation assay; format: cell-based; conditions: mitoxantrone 2.5 nM or doxorubicin 5 nM with decitabine 50 nM
Description: (§1) www.oncotarget.com Oncotarget, Supplementary Materials […]
(§2) derivative chemotherapeutic drugs
(§3) Supplementary Figure 1: Cellular growth/proliferation assays of C42B, PC-3 and LNCaP prostate cancer cell lines treated with mitoxantrone (2.5 nM) or doxorubicin (5 nM) in combination with decitabine (50 nM) or vehicle control (DMSO), decitabine alone, or DMSO alone.
(§4) (1 picture or pasted object on this page, not shown here)

[6] = test system: C42B prostate cancer cell line; test: Cellular growth/proliferation assay; format: cell-based; conditions: mitoxantrone 2.5 nM or doxorubicin 5 nM with decitabine 50 nM
Description: as §1, §2, §3, §4

[7] = test system: PC-3 prostate cancer cell line; test: Cellular growth/proliferation assay; format: cell-based; conditions: mitoxantrone 2.5 nM or doxorubicin 5 nM with decitabine 50 nM
Description: as §1, §2, §3, §4

[8] = 125 nM UHRF1_SRA, 100 nM FAM-labeled hemimethylated oligo, read-out: IC50 of inhibition of UHRF1_SRA binding to labeled hemimethylated DNA

Structure (SMILES) | Inhibition of UHRF1_SRA binding to hemimethylated DNA in pilot screen [1] | Dose-response validation of screen hits (result in words) [2] | IC50 [2, 8] | further results
NC(Cc1cc(O)c(O)cc1O)C(=O)O (racemic) [6-OH-DL-DOPA] | significantly inhibited | failed to show any appreciable inhibition |  | 
S=C=Nc1ccc2oc(C3=NCCN3)cc2c1 [BU99006] | significantly inhibited | failed to show any appreciable inhibition |  | 
COc1cccc2c1C(=O)c1c(O)c3c(c(O)c1C2=O)C[C@@](O)(C(C)=O)C[C@@H]3O[C@H]1C[C@H](N)[C@H](O)[C@H](C)O1 [Daunorubicin, daunorubicin] |  |  | 313 nM | 
O=C(Nc1cccc(C(=O)Nc2ccc(S(=O)(=O)O)c3cc(S(=O)(=O)O)cc(S(=O)(=O)O)c23)c1)Nc1cccc(C(=O)Nc2ccc(S(=O)(=O)O)c3cc(S(=O)(=O)O)cc(S(=O)(=O)O)c23)c1 [NF023] | significantly inhibited | inhibited binding with a sigmoidal dose response | 840 nM | 
O=C(Nc1cc(C(=O)Nc2ccc(S(=O)(=O)O)cc2S(=O)(=O)O)cc(C(=O)Nc2ccc(S(=O)(=O)O)cc2S(=O)(=O)O)c1)Nc1cc(C(=O)Nc2ccc(S(=O)(=O)O)cc2S(=O)(=O)O)cc(C(=O)Nc2ccc(S(=O)(=O)O)cc2S(=O)(=O)O)c1 [NF449] | significantly inhibited | inhibited binding with a sigmoidal dose response | 393 nM | 
N=C1Sc2ccccc2C2=NCCCN12 [PD404,182] | significantly inhibited | failed to show any appreciable inhibition |  | 
Cc1nc(N=Nc2cc(S(=O)(=O)O)c3cc([N+](=O)[O-])cc(S(=O)(=O)O)c3c2)c(COP(=O)(O)O)c(C=O)c1O [PPNDS] | significantly inhibited | inhibited binding with a sigmoidal dose response | 770 nM | 
NCCNc1ccc(NCCN)c2c1C(=O)c1ccncc1C2=O [Pixantrone, pixantrone] |  |  | 557 nM | 
Nc1c(S(=O)(=O)O)cc(Nc2ccc(Nc3nc(Cl)nc(Nc4cccc(S(=O)(=O)O)c4)n3)c(S(=O)(=O)O)c2)c2c1C(=O)c1ccccc1C2=O [Reactive Blue 2] | significantly inhibited |  |  | 
Cc1ccc(C(=O)Nc2ccc(S(=O)(=O)O)c3cc(S(=O)(=O)O)cc(S(=O)(=O)O)c23)cc1NC(=O)c1cccc(NC(=O)Nc2cccc(C(=O)Nc3cc(C(=O)Nc4ccc(S(=O)(=O)O)c5cc(S(=O)(=O)O)cc(S(=O)(=O)O)c45)ccc3C)c2)c1 [Suramin] | significantly inhibited | inhibited binding with a sigmoidal dose response | 2250 nM | 
O=C(O)C1=CC(=C(c2ccc(O)c(C(=O)O)c2)c2ccc(O)c(C(=O)O)c2)C=CC1=O [aurintricarboxylic acid] | significantly inhibited | inhibited binding with a sigmoidal dose response | 21 nM | 
Nc1ncn([C@H]2C[C@H](O)[C@@H](CO)O2)c(=O)n1 [decitabine] |  |  |  | Clonogenic survival, drug alone (DU-145 cells [3]): some reduction in clonogenic survival
CN(N=O)c1cc(O)ccc1O [dephostatin] | significantly inhibited | failed to show any appreciable inhibition |  | 
COc1cccc2c1C(=O)c1c(O)c3c(c(O)c1C2=O)C[C@@](O)(C(=O)CO)C[C@@H]3O[C@H]1C[C@H](N)[C@H](O)[C@H](C)O1 [doxorubicin] |  |  |  | Growth curve analysis, in combination with decitabine (DU-145 cells [4]): synergy; Growth/proliferation, combination with decitabine [5]: did not show enhanced growth inhibition; Growth/proliferation, combination with decitabine [6]: showed enhanced; Growth/proliferation, combination with decitabine [7]: showed enhanced; IC50 [2]: 131 nM; Clonogenic survival, drug alone (DU-145 cells [3]): some reduction in clonogenic survival; Clonogenic survival, in combination with decitabine (DU-145 cells [3]): significantly enhanced reduction in clonogenic survival
CC(=O)[C@]1(O)Cc2c(O)c3c(c(O)c2[C@@H](O[C@H]2C[C@H](N)[C@H](O)[C@H](C)O2)C1)C(=O)c1ccccc1C3=O [idarubicin] | significantly inhibited | inhibited binding with a sigmoidal dose response | 593 nM | 
CN(N=O)c1ccc(O)c(O)c1 [methyl-3,4-dephostatin] | significantly inhibited | failed to show any appreciable inhibition |  | 
O=C1c2c(O)ccc(O)c2C(=O)c2c(NCCNCCO)ccc(NCCNCCO)c21 [mitoxantrone] | significantly inhibited | inhibited binding with a sigmoidal dose response | 134 nM | Growth curve analysis, in combination with decitabine (DU-145 cells [4]): synergy; Growth/proliferation, combination with decitabine [5]: enhanced inhibition of; Growth/proliferation, combination with decitabine [6]: enhanced inhibition of; Growth/proliferation, combination with decitabine [7]: enhanced inhibition of; Clonogenic survival, drug alone (DU-145 cells [3]): some reduction in clonogenic survival; Clonogenic survival, in combination with decitabine (DU-145 cells [3]): significantly enhanced reduction in clonogenic survival
N#CC(C#N)=C(N)/C(C#N)=C/c1cc(O)c(O)c(O)c1 [tyrphostin 51] | significantly inhibited | failed to show any appreciable inhibition |  | 
